Assay results as given in US11485736B2 (KSQ Therapeutics, Inc., priority 2018, dated 2022).
Where two headings read alike, the source gives them in different places. Each block holds one molecule with its values, some of them ahead of it.

Assays:
USP1/UAF1 = USP1/UAF1 (Homo sapiens (Human), UniProt O94782); assay: Deubiquitination assay for USP1/UAF1 activity (ubiquitin-rhodamine 110); assay type: biochemical; settings: 0.05 nM USP1/UAF1, 150 nM ubiquitin-rhodamine
Protocol: Certain Compounds of the Disclosure were assessed for USP1/UAF1 activity in a Ubiquitin Rhodamine assay modified from those described previously.
Deubiquitinase activity was measured using ubiquitin-rhodamine 110 as a substrate. Cleavage of the amide bond between rhodamine and the c-terminal glycine of ubiquitin yields an increase in fluorescence signal. The assay was conducted in 20 ul total volume of assay buffer (50 mM Tris-HCl, pH 7.8, 0.5 mM EDTA, 0.01% Bovine Serum Albumin, 1 mM DTT, 0.01% Tween-20), and 0.05 nM USP1/UAF1 enzyme.
Compounds, dissolved in DMSO were tested in dose response format, beginning at 10 uM.
Compounds depicted below were added to enzyme/assay buffer mix and incubated 10 min.
Data for all assay formats was calculated as percent inhibition compared with control wells. […] IC50 values were calculated using the standard four parameter curve fitting algorithm in either Prism GraphPad (La Jolla, Calif.) software, or Collaborative Drug Discovery (Burlingame, Calif.) CDD Vault.

[1] = Liver microsomal stability, human liver microsomes; assay type: in vitro ADME; settings: 1 μM compound, NADPH, read-out: t1/2 (min) in HLM
How it was run: (§1)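 Compound (1 μM final) was incubated with prewarmed human or rat liver microsomes (1 mg/mL in 100 mM phosphate master mix) plus NADPH; aliquots at 0.5–30 minutes were quenched in cold acetonitrile and quantified by LC-MS/MS. Half-life came from the ln(% remaining) versus time slope, converted to CLint (μL/min/mg prot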

[2] = ADME solubility determination at pH 2.0 and pH 7.4; assay type: physicochemical; settings: aqueous buffer, thermodynamic from solid, LC-MS/MS
How it was run: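 Dried residues of 10 mM DMSO stocks were shaken in PBS pH 7.4 or pH 2.0 for 24 hours at 25° C. and 1,100 rpm. After centrifugation, supernatants were quantified by LC-MS/MS against a standard of known concentration, applying a dilution factor.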

[3] = Liver microsomal stability, rat liver microsomes; assay type: in vitro ADME; settings: 1 μM compound, NADPH, read-out: t1/2 (min) in RLM
How it was run: as §1

[4] = PBS pH 2.0, shaken at 25° C. for 24 hours, read-out: Solubility at pH 2.0
[5] = PBS pH 7.4, shaken at 25° C. for 24 hours, read-out: Solubility at pH 7.4

Chain of USP1/UAF1 (O94782 whole entry): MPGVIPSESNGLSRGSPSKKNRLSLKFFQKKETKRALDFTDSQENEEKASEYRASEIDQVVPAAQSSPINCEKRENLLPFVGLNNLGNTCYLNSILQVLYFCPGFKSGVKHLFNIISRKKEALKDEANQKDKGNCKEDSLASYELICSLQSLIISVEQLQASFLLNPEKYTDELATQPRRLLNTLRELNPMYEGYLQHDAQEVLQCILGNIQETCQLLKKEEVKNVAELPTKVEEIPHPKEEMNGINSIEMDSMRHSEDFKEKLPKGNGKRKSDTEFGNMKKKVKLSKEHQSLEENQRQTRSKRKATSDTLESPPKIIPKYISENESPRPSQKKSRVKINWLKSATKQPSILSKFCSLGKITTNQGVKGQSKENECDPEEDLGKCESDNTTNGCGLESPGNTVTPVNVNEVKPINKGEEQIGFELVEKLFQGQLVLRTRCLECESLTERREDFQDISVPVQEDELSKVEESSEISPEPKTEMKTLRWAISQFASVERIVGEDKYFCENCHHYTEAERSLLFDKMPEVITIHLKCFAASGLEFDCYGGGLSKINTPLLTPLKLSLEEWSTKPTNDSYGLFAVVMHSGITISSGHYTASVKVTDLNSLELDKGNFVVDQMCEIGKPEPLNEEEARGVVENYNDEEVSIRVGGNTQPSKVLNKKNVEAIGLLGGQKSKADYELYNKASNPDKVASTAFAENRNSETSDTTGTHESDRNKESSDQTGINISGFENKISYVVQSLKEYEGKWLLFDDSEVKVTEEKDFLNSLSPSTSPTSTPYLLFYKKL
Chain of USP1/UAF1 (Q8TAF3 whole entry partner): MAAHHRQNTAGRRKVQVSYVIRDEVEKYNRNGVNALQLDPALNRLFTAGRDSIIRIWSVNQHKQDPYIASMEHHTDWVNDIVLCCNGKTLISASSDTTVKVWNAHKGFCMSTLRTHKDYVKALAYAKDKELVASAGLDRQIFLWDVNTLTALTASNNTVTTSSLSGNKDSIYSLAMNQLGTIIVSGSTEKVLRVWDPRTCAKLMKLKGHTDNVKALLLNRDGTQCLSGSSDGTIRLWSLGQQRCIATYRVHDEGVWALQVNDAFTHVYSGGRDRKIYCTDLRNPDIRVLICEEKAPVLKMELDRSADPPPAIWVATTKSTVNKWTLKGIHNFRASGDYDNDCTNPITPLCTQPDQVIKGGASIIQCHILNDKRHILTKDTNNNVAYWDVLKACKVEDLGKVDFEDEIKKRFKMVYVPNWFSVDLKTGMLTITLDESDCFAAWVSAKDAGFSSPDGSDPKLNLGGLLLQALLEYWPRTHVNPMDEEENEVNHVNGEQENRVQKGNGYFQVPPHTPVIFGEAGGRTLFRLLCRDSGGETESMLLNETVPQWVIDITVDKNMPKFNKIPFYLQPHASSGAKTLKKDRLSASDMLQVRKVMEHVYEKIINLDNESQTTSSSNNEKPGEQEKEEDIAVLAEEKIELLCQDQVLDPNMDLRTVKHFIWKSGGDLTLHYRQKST

IC50 (USP1/UAF1; Table 3): 10 to 100 nM
SMILES: COc1ncnc(C2CC2)c1-c1ncc2cnn(Cc3ccc(-c4nc(C(F)(F)F)cn4CCF)cc3)c2n1 [drawing 764]

IC50 (USP1/UAF1; Table 3): 100 to 200 nM
SMILES: COc1ncnc(C)c1-c1ncc2cnn(Cc3ccc(-n4nc(C(F)(F)F)cc4C)cc3)c2n1 [drawing 784]

IC50 (USP1/UAF1; Table 3): > 200 nM
SMILES: COc1nc(C)c(-c2ncc3cnn(Cc4ccc(-c5nc(C(F)(F)F)cn5C)cc4)c3n2)c(OC)n1 [drawing 793]

IC50 (USP1/UAF1; Table 4): 100 to 200 nM
SMILES: COc1ncnc(C2CC2)c1-c1ncc2ncn(Cc3ccc(-n4nc(C(F)(F)F)cc4C)cc3)c2n1 [drawing 830]

IC50 (USP1/UAF1; Table 3): 10 to 100 nM
SMILES: CCn1cc(C(F)(F)F)nc1-c1ccc([C@H](C)n2ncc3cnc(-c4c(OC)ncnc4C4CC4)nc32)cc1 (single isomer, unassigned) [drawing 751]

IC50 (USP1/UAF1; Table 4): 10 to 100 nM
SMILES: COc1ncnc(C2CC2)c1-c1ncc2nnn(Cc3ccc(-c4nc(C(F)(F)F)cn4C)cc3)c2n1 [drawing 828]

IC50 (USP1/UAF1; Table 4): 10 to 100 nM
SMILES: COc1ncnc(C2CC2)c1-c1ncc2nc(C)n(Cc3ccc(-n4nc(C(F)(F)F)cc4C)cc3)c2n1 [drawing 827]

IC50 (USP1/UAF1; Table 3): 10 to 100 nM
SMILES: CCOc1ncnc(C2CC2)c1-c1ncc2cnn(Cc3ccc(-c4nc(C(F)(F)F)cn4C)cc3)c2n1 [drawing 763]

IC50 (USP1/UAF1; Table 3): 10 to 100 nM
SMILES: COc1ncnc(C(C)(C)F)c1-c1ncc2cnn(Cc3ccc(-c4nc(C(F)(F)F)cn4C)cc3)c2n1 [drawing 772]

IC50 (USP1/UAF1; Table 3): 10 to 100 nM
SMILES: COc1ncnc(OC)c1-c1ncc2cnn(Cc3ccc(-c4nc(C(F)(F)F)cn4C)cc3)c2n1 [drawing 766]

IC50 (USP1/UAF1; Table 4): 10 to 100 nM
SMILES: CCn1cc(C(F)(F)F)nc1-c1ccc(Cn2nc(OC3CCC3)c3cnc(-c4c(OC)ncnc4C4CC4)nc32)cc1 [drawing 806]

IC50 (USP1/UAF1; Table 4): 10 to 100 nM
SMILES: CCc1nc2cnc(-c3c(OC)ncnc3C3CC3)nc2n1Cc1ccc(-c2nc(C(F)(F)F)cn2C(C)C)cc1 [drawing 808]

IC50 (USP1/UAF1; Table 3): 10 to 100 nM
SMILES: CCn1cc(C(F)(F)F)nc1-c1ccc(Cn2ncc3cnc(-c4c(OC)ncnc4OC)nc32)cc1 [drawing 755]

IC50 (USP1/UAF1; Table 4): 10 to 100 nM
SMILES: CCOc1nn(Cc2ccc(-c3nc(C(F)(F)F)cn3CC)cc2)c2nc(-c3c(OC)ncnc3C3CC3)ncc12 [drawing 816]

IC50 (USP1/UAF1; Table 3): 100 to 200 nM
SMILES: COCCOc1ncnc(C2CC2)c1-c1ncc2cnn(Cc3ccc(-n4nc(C(F)(F)F)cc4C)cc3)c2n1 [drawing 781]

IC50 (USP1/UAF1; Table 4): 10 to 100 nM
SMILES: COCc1nc2cnc(-c3c(OC)ncnc3C3CC3)nc2n1Cc1ccc(-c2nc(C(F)(F)F)cn2C(C)C)cc1 [drawing 804]

IC50 (USP1/UAF1; Table 3): 10 to 100 nM
SMILES: COc1ncnc(C2CC2)c1-c1ncc2cnn(Cc3ccc(-c4nc(C(F)(F)F)cn4C4CN(C)C4)cc3)c2n1 [drawing 775]

IC50 (USP1/UAF1; Table 4): 10 to 100 nM
SMILES: COc1ncnc(C2CC2)c1-c1ncc2nc(C(C)C)n(Cc3ccc(-c4nc(C(F)(F)F)cn4C(C)C)cc3)c2n1 [drawing 805]

IC50 (USP1/UAF1; Table 3): 10 to 100 nM
SMILES: CCn1cc(C(F)(F)F)nc1-c1ccc([C@@H](C)n2ncc3cnc(-c4c(OC)ncnc4C4CC4)nc32)cc1 (single isomer, unassigned) [drawing 747]

IC50 (USP1/UAF1; Table 3): 10 to 100 nM
SMILES: CCn1cc(C(F)(F)F)nc1-c1ccc(Cn2ncc3cnc(-c4c(OC5CC5)ncnc4C4CC4)nc32)cc1 [drawing 750]

Continued, molecule first:

SMILES: COc1nccc(C)c1-c1ncc2cnn(Cc3ccc(-c4nc(C(F)(F)F)cn4C)cc3)c2n1 [drawing 711]
IC50 (USP1/UAF1; Table 2): 10 to 100 nM

SMILES: Cc1cc(C(F)(F)F)nn1-c1ccc(Cn2ncc3cnc(-c4ccccc4C(C)C)nc32)cc1 [drawing 716]
IC50 (USP1/UAF1; Table 2): 10 to 100 nM

SMILES: Cn1cc(C(F)(F)F)nc1-c1ccc(Cn2ncc3cnc(-c4ccccc4S(C)(=O)=O)nc32)cc1 [drawing 707]
IC50 (USP1/UAF1; Table 2): 100 to 200 nM

SMILES: Cc1nc(-c2ccccc2C(C)C)nc2c1cnn2Cc1ccc(-c2nc(C(F)(F)F)cn2C)cc1
IC50 (USP1/UAF1; Table 2): < 10 nM

SMILES: Cc1cnn(C(C)C)c1-c1ncc2cnn(Cc3ccc(-n4nc(C(F)(F)F)cc4C)cc3)c2n1 [drawing 734]
IC50 (USP1/UAF1; Table 3): < 10 nM

SMILES: Cc1nn(Cc2ccc(-c3nc(C(F)(F)F)cn3C)cc2)c2nc(-c3ccccc3C(C)C)ncc12 [drawing 729]
IC50 (USP1/UAF1; Table 2): < 10 nM

SMILES: COc1ccccc1-c1ncc2cnn(Cc3ccc(-c4nc(C(F)(F)F)cn4C)cc3)c2n1 [drawing 715]
IC50 (USP1/UAF1; Table 2): 10 to 100 nM

SMILES: Cc1cc(C(F)(F)F)nn1-c1ccc(Cn2ncc3cnc(-c4cccnc4C(C)C)nc32)cc1 [drawing 713]
IC50 (USP1/UAF1; Table 2): 10 to 100 nM

SMILES: COc1ncnc(C2CC2)c1-c1ncc2cnn(Cc3ccc(-c4cn(C)c(C(F)(F)F)n4)cc3)c2n1 [drawing 736]
IC50 (USP1/UAF1; Table 3): 10 to 100 nM

SMILES: Cc1cc(C(F)F)nn1-c1ccc(Cn2ncc3cnc(-c4cccnc4C(C)C)nc32)cc1 [drawing 710]
IC50 (USP1/UAF1; Table 2): 10 to 100 nM

SMILES: COc1ncnc(C2CC2)c1-c1ncc2cnn(Cc3ccc(-c4nc(OC)n(C)n4)cc3)c2n1
IC50 (USP1/UAF1; Table 3): > 200 nM

SMILES: [2H]C([2H])([2H])n1cc(C(F)(F)F)nc1-c1ccc(Cn2ncc3cnc(-c4c(OC)ncnc4C4CC4)nc32)cc1
IC50 (USP1/UAF1; Table 3): 10 to 100 nM

SMILES: COc1ncnc(C2CC2)c1-c1ncc2cnn(Cc3ccc(-c4nc(C(F)(F)F)cn4C4CCC4)cc3)c2n1 [drawing 732]
IC50 (USP1/UAF1; Table 3): < 10 nM

SMILES: CCOc1cc(C(F)(F)F)nn1-c1ccc(Cn2ncc3cnc(-c4c(OC)ncnc4C4CC4)nc32)cc1 [drawing 735]
IC50 (USP1/UAF1; Table 3): < 10 nM

SMILES: COc1ncnc(C2CC2)c1-c1ncc2cnn(Cc3ccc(-n4nc(C#N)cc4C)cc3)c2n1
IC50 (USP1/UAF1; Table 3): 10 to 100 nM

SMILES: Cn1cc(C(F)(F)F)nc1-c1ccc(Cn2ncc3cnc(-c4c(C5CC5)ncnc4N4CCC4)nc32)cc1
IC50 (USP1/UAF1; Table 3): > 200 nM

SMILES: CC(C)c1ccccc1-c1ncc2cnn(Cc3ccc(-c4nc(C(F)(F)F)cn4C)cc3)c2n1 [drawing 730]
IC50 (USP1/UAF1; Table 2): < 10 nM

SMILES: COc1ncnc(C2CC2)c1-c1ncc2cnn(Cc3ccc(-c4nc(C(F)F)nn4C)cc3)c2n1
IC50 (USP1/UAF1; Table 3): > 200 nM

SMILES: CN(C)c1ncnc(C2CC2)c1-c1ncc2cnn(Cc3ccc(-c4nc(C(F)(F)F)cn4C)cc3)c2n1
IC50 (USP1/UAF1; Table 3): > 200 nM

SMILES: Cn1cc(C(F)(F)F)nc1-c1ccc(Cn2ncc3cnc(-c4c(OC5CCOC5)ncnc4C4CC4)nc32)cc1 (stereo not shown)
IC50 (USP1/UAF1; Table 3): 100 to 200 nM

SMILES: CCn1cc(C(F)(F)F)nc1-c1ccc(Cn2ncc3cnc(-c4c(OC(C)(C)C)ncnc4C4CC4)nc32)cc1 [drawing 740]
IC50 (USP1/UAF1; Table 3): 10 to 100 nM

SMILES: COc1ncnc(C2CC2)c1-c1ncc2cnn(Cc3ccc(-c4nc(C(F)(F)F)cn4C(C)CF)cc3)c2n1 (stereo not shown) [Example 151, 6-(4-cyclopropyl-6-methoxypyrimidin-5-yl)-1-(4-(1-(1-fluoropropan-2-yl)-4-(trifluoromethyl)-1H-imidazol-2-yl)benzyl)-1H-pyrazolo[3,4-d]pyrimidine]
half-life at 1 μM [1]: > 25 min | solubility at 24 h [2, 4]: > 10 µM | solubility at 24 h [2, 5]: > 10 µM | half-life at 1 μM [3]: > 25 min

SMILES: COc1ncnc(C2CC2)c1-c1ncc2nnn(Cc3ccc(-c4nc(C(F)(F)F)cn4C)cc3)c2n1 [Example 215, 5-(4-cyclopropyl-6-methoxypyrimidin-5-yl)-3-(4-(1-methyl-4-(trifluoromethyl)-1H-imidazol-2-yl)benzyl)-3H-[1,2,3]triazolo[4,5-d]pyrimidine]
half-life at 1 μM [1]: > 25 min | solubility at 24 h [2, 4]: > 10 µM | solubility at 24 h [2, 5]: > 10 µM | half-life at 1 μM [3]: < 25 min

SMILES: CCn1cc(C(F)(F)F)nc1-c1ccc(C(C)n2ncc3cnc(-c4c(OC)ncnc4C(C)C)nc32)cc1F (stereo not shown) [Example 116]
half-life at 1 μM [1]: < 25 min | solubility at 24 h [2, 4]: > 10 µM | solubility at 24 h [2, 5]: < 10 µM | half-life at 1 μM [3]: < 25 min

SMILES: COc1ncnc(C2CC2)c1-c1ncc2cnn(Cc3ccc(-c4nc(C(F)(F)F)cn4C)cc3F)c2n1 [Example 20]
half-life at 1 μM [1]: > 25 min | solubility at 24 h [2, 4]: < 10 µM | solubility at 24 h [2, 5]: < 10 µM | half-life at 1 μM [3]: > 25 min

SMILES: COc1ncnc(C2CC2)c1-c1ncc2cnn(Cc3ccc(-c4nc(C(F)(F)F)cn4C4CCOC4)cc3)c2n1 (stereo not shown) [Example 146]
half-life at 1 μM [1]: < 25 min | solubility at 24 h [2, 4]: > 10 µM | solubility at 24 h [2, 5]: > 10 µM | half-life at 1 μM [3]: < 25 min
